Biological target: IDH2 R140Q (Homo sapiens (Human), UniProt P48735, R140Q)
Assay: IDH2 R140Q enzymatic cofactor depletion assay (diaphorase/resazurin)
Type: biochemical
Details: IDH2 R140Q enzyme, one hour preincubation with compound, one hour reaction; read-out: Enz R140Q
In short: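 Enzyme preincubated with compound 1 h at room temperature, then reaction started with 50 μM NADPH and 6.3 mM α-KG and run 1 h at room temperature. Remaining NADPH measured by diaphorase (36 μg/ml)/resazurin (60 μM) stop mix, fluorescence read at Ex544/Em590 after 1 min.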

Sequence of IDH2 R140Q (P48735 40-452 R140Q): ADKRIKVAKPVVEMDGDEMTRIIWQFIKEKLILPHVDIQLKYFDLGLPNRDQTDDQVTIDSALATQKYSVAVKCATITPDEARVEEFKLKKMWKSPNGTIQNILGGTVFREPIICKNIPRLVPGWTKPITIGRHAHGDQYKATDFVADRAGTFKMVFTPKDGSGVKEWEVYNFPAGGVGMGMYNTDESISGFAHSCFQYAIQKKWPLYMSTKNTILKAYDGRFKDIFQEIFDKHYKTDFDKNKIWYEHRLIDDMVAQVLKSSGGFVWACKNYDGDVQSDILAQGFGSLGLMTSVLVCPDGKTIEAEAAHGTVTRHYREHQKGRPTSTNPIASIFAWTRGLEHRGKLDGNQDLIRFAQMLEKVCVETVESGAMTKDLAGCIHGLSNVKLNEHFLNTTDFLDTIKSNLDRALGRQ

Compound: 2-(3-(1-methyl-1H-pyrazol-5-yl)ureido)-N-(2,2,2-trifluoroethyl)-[1,1′-biphenyl]-4-sulfonamide [Compound 77]
- IC50: 100 to 1000 nM

Compound: CCOc1ccc(S(=O)(=O)NCC(F)(F)F)cc1NC(=O)Nc1cccc(C(F)(F)F)c1 [Compound 177, 4-ethoxy-N-(2,2,2-trifluoroethyl)-3-(3-(3-(trifluoromethyl)phenyl)ureido)benzenesulfonamide]
- IC50: < 100 nM

Compound: O=C(Nc1cc(Cl)cc(Cl)c1)Nc1cc(S(=O)(=O)NC2CC2)ccc1-c1ccsc1 [Compound 26]
- IC50: 1000 to 10000 nM

Compound: O=C(Nc1ccc(F)c(Cl)c1)Nc1cc(S(=O)(=O)NCC(F)(F)F)ccc1C1CCCCO1 (centres unmarked) [Compound 166, 3-(3-(3-chloro-4-fluorophenyl)ureido)-4-(tetrahydro-2H-pyran-2-yl)-N-(2,2,2-trifluoroethyl)benzene sulfonamide]
- IC50: 100 to 1000 nM

Compound: O=C(Nc1cccc(C(F)(F)F)c1)Nc1cc(S(=O)(=O)NC2CC2)ccc1N1CCCOCC1 [Compound 349, N-cyclopropyl-4-(1,4-oxazepan-4-yl)-3-(3-(3-(trifluoromethyl)phenyl)ureido)benzenesulfonamide]
- IC50: 100 to 1000 nM

Compound: C[C@@H](NS(=O)(=O)c1ccc(-c2ccsc2)c(NC(=O)Nc2cccc(C(F)(F)F)c2)c1)c1ccccc1 [Compound 144]
- IC50: 1000 to 10000 nM

Compound: O=C(Nc1ccccc1F)Nc1cc(S(=O)(=O)Nc2ccccc2)ccc1-c1ccsc1 [Compound 9, 3-(3-(2-fluorophenyl)ureido)-N-phenyl-4-(thiophen-3-yl)benzenesulfonamide]
- IC50: 100 to 1000 nM

Compound: O=C(Nc1ccc(Cl)cc1)Nc1cc(S(=O)(=O)NCC(F)(F)F)ccc1-c1ccccc1 [Compound 37, 2-(3-(4-chlorophenyl)ureido)-N-(2,2,2-trifluoroethyl)-[1,1′-biphenyl]-4-sulfonamide]
- IC50: 100 to 1000 nM

Compound: CCOc1ccc(S(=O)(=O)NC2(C#N)CC2)cc1NC(=O)Nc1cccc(C(F)(F)F)c1 [Compound 181, N-(1-cyanocyclopropyl)-4-ethoxy-3-(3-(3-(trifluoromethyl)phenyl)ureido)benzenesulfonamide]
- IC50: 100 to 1000 nM

Compound: O=C(Nc1cnccc1Cl)Nc1cc(S(=O)(=O)NCC(F)(F)F)ccc1-c1ccccc1 [Compound 85, 2-(3-(4-chloropyridin-3-yl)ureido)-N-(2,2,2-trifluoroethyl)-[1,1′-biphenyl]-4-sulfonamide]
- IC50: 100 to 1000 nM

Compound: O=C(Nc1cc(C(F)(F)F)ccn1)Nc1cc(S(=O)(=O)NCC(F)(F)F)ccc1OCC1CC1 [Compound 189, 4-(cyclopropylmethoxy)-N-(2,2,2-trifluoroethyl)-3-(3-(4-(trifluoromethyl)pyridin-2-yl)ureido)benzene sulfonamide]
- IC50: 100 to 1000 nM

Compound: O=C(Nc1cc(F)ccc1F)Nc1cc(S(=O)(=O)NCC(F)(F)F)ccc1-c1ccccc1 [Compound 38, 2-(3-(2,5-difluorophenyl)ureido)-N-(2,2,2-trifluoroethyl)-[1,1′-biphenyl]-4-sulfonamide]
- IC50: 100 to 1000 nM

Compound: CS(=O)(=O)c1cccc(NC(=O)Nc2cc(S(=O)(=O)NCC(F)(F)F)ccc2-c2ccccc2)c1 [Compound 67, 2-(3-(3-(methylsulfonyl)phenyl)ureido)-N-(2,2,2-trifluoroethyl)-[1,1′-biphenyl]-4-sulfonamide]
- IC50: 100 to 1000 nM

Compound: Cc1cncc(NC(=O)Nc2cc(S(=O)(=O)NC3CC3)ccc2-c2ccsc2)c1 [Compound 29, N-cyclopropyl-3-(3-(5-methylpyridin-3-yl)ureido)-4-(thiophen-3-yl)benzenesulfonamide]
- IC50: 1000 to 10000 nM

Compound: O=C(Nc1cccc(C(F)(F)F)c1)Nc1cc(S(=O)(=O)NC2CCSCC2)ccc1-c1ccsc1 [Compound 134, N-(tetrahydro-2H-thiopyran-4-yl)-4-(thiophen-3-yl)-3-(3-(3-(trifluoromethyl)phenyl)ureido)benzene sulfonamide]
- IC50: 100 to 1000 nM

Compound: CC(C)(C)NS(=O)(=O)c1ccc(-c2ccsc2)c(NC(=O)Nc2cccc(C(F)(F)F)c2)c1 [Compound 118, N-(tert-butyl)-4-(thiophen-3-yl)-3-(3-(3-(trifluoromethyl)phenyl)ureido)benzenesulfonamide]
- IC50: 100 to 1000 nM

Compound: O=C(Nc1ccc(F)c(C(F)(F)F)c1)Nc1cc(S(=O)(=O)NCC(F)(F)F)ccc1C1CCCCO1 (centres unmarked) [Compound 167, 3-(3-(4-fluoro-3-(trifluoromethyl)phenyl)ureido)-4-(tetrahydro-2H-pyran-2-yl)-N-(2,2,2-trifluoroethyl)benzenesulfonamide]
- IC50: 100 to 1000 nM

Compound: O=C(Nc1cc(S(=O)(=O)NC2CC2)ccc1-c1ccsc1)Nc1ccc(F)cc1C(F)(F)F [Compound 28, N-cyclopropyl-3-(3-(4-fluoro-2-(trifluoromethyl)phenyl)ureido)-4-(thiophen-3-yl)benzenesulfonamide]
- IC50: 100 to 1000 nM

Compound: CC(C)n1ccc(NC(=O)Nc2cc(S(=O)(=O)NCC(F)(F)F)ccc2-c2ccccc2)n1 [Compound 92, 2-(3-(1-isopropyl-1H-pyrazol-3-yl)ureido)-N-(2,2,2-trifluoroethyl)-[1,1′-biphenyl]-4-sulfonamide]
- IC50: 100 to 1000 nM

Compound: O=C(Nc1cccc(C(F)(F)F)c1)Nc1cc(S(=O)(=O)NCC2CC2)ccc1C1CCCCO1 (centres unmarked) [Compound 162, N-(cyclopropylmethyl)-4-(tetrahydro-2H-pyran-2-yl)-3-(3-(3-(trifluoromethyl)phenyl)ureido)benzene sulfonamide]
- IC50: 100 to 1000 nM

Compound: CCOc1ccc(S(=O)(=O)NCC(F)(F)F)cc1NC(=O)Nc1cc(C(F)(F)F)ccn1 [Compound 190, 4-ethoxy-N-(2,2,2-trifluoroethyl)-3-(3-(4-(trifluoromethyl)pyridin-2-yl)ureido)benzenesulfonamide]
- IC50: 100 to 1000 nM

Compound: CONS(=O)(=O)c1ccc(-c2ccsc2)c(NC(=O)Nc2cccc(C(F)(F)F)c2)c1 [Compound 138, N-methoxy-4-(thiophen-3-yl)-3-(3-(3-(trifluoromethyl)phenyl)ureido)benzenesulfonamide]
- IC50: 100 to 1000 nM

Compound: O=C(Nc1ccc(F)c(Cl)c1)Nc1cc(S(=O)(=O)Nc2ccccc2)ccc1-c1ccsc1 [Compound 19]
- IC50: 1000 to 10000 nM

Compound: O=C(Nc1cccc(C(F)(F)F)c1)Nc1cc(S(=O)(=O)NC2CC2)ccc1OCc1ccccc1 [Compound 193]
- IC50: 1000 to 10000 nM

Compound: Cc1ccc(C)c(NC(=O)Nc2cc(S(=O)(=O)Nc3ccccc3)ccc2-c2ccsc2)c1 [Compound 11, 3-(3-(2,5-dimethylphenyl)ureido)-N-phenyl-4-(thiophen-3-yl)benzenesulfonamide]
- IC50: 100 to 1000 nM

Compound: O=C(Nc1nccs1)Nc1cc(S(=O)(=O)NCC(F)(F)F)ccc1-c1ccccc1 [Compound 70, 2-(3-(thiazol-2-yl)ureido)-N-(2,2,2-trifluoroethyl)-[1,1′-biphenyl]-4-sulfonamide]
- IC50: 100 to 1000 nM

Compound: O=C(Nc1cccc(C(F)(F)F)c1)Nc1cc(S(=O)(=O)NC2CC2)cnc1N1CCOCC1 [Compound 357]
- IC50: 1000 to 10000 nM

Compound: CC(C)Oc1ccc(S(=O)(=O)NCC(F)(F)F)cc1NC(=O)Nc1cccc(C(F)(F)F)c1 [Compound 185, 4-isopropoxy-N-(2,2,2-trifluoroethyl)-3-(3-(3-(trifluoromethyl)phenyl)ureido)benzenesulfonamide]
- IC50: 100 to 1000 nM

Compound: O=C(Nc1ccccc1)Nc1cc(S(=O)(=O)NC2CC2)ccc1-c1ccccc1 [Compound 34, N-cyclopropyl-2-(3-phenylureido)-[1,1′-biphenyl]-4-sulfonamide]
- IC50: 100 to 1000 nM

Compound: O=C(Nc1cccc(C(F)(F)F)c1)Nc1cc(S(=O)(=O)N2CCS(=O)(=O)CC2)ccc1-c1ccsc1 [Compound 135, 1-(5-((1,1-dioxidothiomorpholino)sulfonyl)-2-(thiophen-3-yl)phenyl)-3-(3-(trifluoromethyl)phenyl)urea]
- IC50: 100 to 1000 nM

Compound: O=C(Nc1cccc(C(F)(F)F)c1)Nc1cc(S(=O)(=O)NCC2CCOCC2)ccc1-c1ccsc1 [Compound 133, N-((tetrahydro-2H-pyran-4-yl)methyl)-4-(thiophen-3-yl)-3-(3-(3-(trifluoromethyl)phenyl)ureido)benzene sulfonamide]
- IC50: 100 to 1000 nM

Compound: O=C(Nc1cc(C(F)(F)F)ccn1)Nc1cc(S(=O)(=O)NCC(F)(F)F)ccc1C1CCCO1 (centres unmarked) [Compound 174, 4-(tetrahydrofuran-2-yl)-N-(2,2,2-trifluoroethyl)-3-(3-(4-(trifluoromethyl)pyridin-2-yl)ureido)benzene sulfonamide]
- IC50: 1000 to 10000 nM

Compound: O=C(Nc1cccc(C(F)(F)F)c1)Nc1cc(S(=O)(=O)N2CCOCC2)ccc1-n1ccnc1 [Compound 346]
- IC50: 1000 to 10000 nM

Compound: O=C(Nc1cccc(C(F)(F)F)c1)Nc1cc(S(=O)(=O)N2CCOCC2)cnc1N1CCOCC1 [Compound 356]
- IC50: 1000 to 10000 nM

Compound: COc1cccc(-c2ccc(S(=O)(=O)Nc3ccccc3)cc2NC(=O)Nc2cccc(C(F)(F)F)c2)c1 [Compound 51]
- IC50: 1000 to 10000 nM

Compound: O=C(Nc1cccc(C(F)(F)F)c1)Nc1cc(S(=O)(=O)NCC(F)(F)F)ccc1-c1ccccc1 [Compound 44, N-(2,2,2-trifluoroethyl)-2-(3-(3-(trifluoromethyl)phenyl)ureido)-[1,1′-biphenyl]-4-sulfonamide]
- IC50: 100 to 1000 nM

Compound: O=C(Nc1cccc(C(F)(F)F)c1)Nc1cc(S(=O)(=O)NC2CCCC2)ccc1-c1ccsc1 [Compound 126, N-cyclopentyl-4-(thiophen-3-yl)-3-(3-(3-(trifluoromethyl)phenyl)ureido)benzenesulfonamide]
- IC50: 100 to 1000 nM

Compound: Cc1ccccc1NC(=O)Nc1cc(S(=O)(=O)Nc2ccccc2)ccc1-c1ccsc1 [Compound 2, N-phenyl-4-(thiophen-3-yl)-3-(3-(o-tolyl)ureido)benzenesulfonamide]
- IC50: 100 to 1000 nM

Compound: Cc1ccc(NC(=O)Nc2c(Cl)cccc2Cl)cc1S(=O)(=O)Nc1ccc(Cl)cc1 [Compound 352]
- IC50: 100 to 1000 nM

Compound: O=C(Nc1cccc(F)n1)Nc1cc(S(=O)(=O)NCC(F)(F)F)ccc1-c1ccccc1 [Compound 86, 2-(3-(6-fluoropyridin-2-yl)ureido)-N-(2,2,2-trifluoroethyl)-[1,1′-biphenyl]-4-sulfonamide]
- IC50: 100 to 1000 nM

Compound: O=C(Nc1cccc(C(F)(F)F)c1)Nc1cc(S(=O)(=O)NCC2CC2)ccc1-c1ccsc1 [Compound 127, N-(cyclopropylmethyl)-4-(thiophen-3-yl)-3-(3-(3-(trifluoromethyl)phenyl)ureido)benzenesulfonamide]
- IC50: 100 to 1000 nM

Source: patent US10202339B2, “Therapeutic compounds and compositions” (AGIOS PHARMACEUTICALS, INC., priority 2012, dated 2019)
